Patent publication US7230074B2, “Inhibitors of dipeptidyl-aminopeptidase type IV” (Trustees of Tufts College, priority 1991, dated 2007)

Assays:
[1] = tested on: HIV-1-IIIB in A3.5 cells; assay: HIV-1 replication in A3.5 cells (p24 antigen ELISA); format: cell-based
Excerpt: […]. The rational for these experiments comes from the reported connection between T-cell activation, IL-2 production, and HIV replication and expression of HIV proteins.
Cell lines used in the present studies include A3.5 cells (a monocyte cell line which is CD4+, HLA−DR+, and CD3—) and peripheral blood mononuclear cells (PBMC). The A3.5 cells grow continuously in culture without exogenous growth factors. PBMC cells require IL-2 for propagation in vitro. Cells were infected with HIV-1-IIIB at a multiplicity of infection (moi) of 5×10^−4 tissue culture infectious dose 50 (TCID50)/cell for both the A3.5 cells and the PMBC cells. Dilutions of inhibitor were made in RPMI-1640 and subsequently passed through a 0.22 um filter. At the start of each experiment, 1×10^6 cells/well, in 24-well plates, were infected with HIV-1-IIIB at the moi indicated above. Inhibitor was added simultaneously at the appropriate dilutions. All cultures were maintained at 5% CO2 and 37° C. in RPMI-1640 supplemented with penicillin, streptomycin, L-glutamine, hepes buffer, and 20% heat-inactivated fetal calf serum. Cell counts and viability were determined by trypan blue exclusion. Culture supernatants were harvested and assayed for HIV-1 p24 antigen by ELISA (NEN-DuPont, Boston, Mass.). Fresh media and inhibitor were added on each day. […]

[2] = Decomposition in aqueous solution; format: physicochemical; conditions: neutral pH, room temperature (20–25° C.)
Excerpt: . Many dipeptide derivatives with a free N terminal amino group and a functional group (such as a difluoromethyl ketone) on the C-terminus are similarly unstable due to intramolecular reaction. A six member ring is formed between the amino and C-terminal functional groups and undergoes subsequent further reaction, such as hydrolysis.

[3] = target: T1, DP-IV isolated from porcine kidneys (Sus scrofa, UniProt P22411); assay: DP-IV inhibition, hydrolysis of Ala-Pro-p-nitroanilide; format: biochemical, pig; conditions: for Inhibition of / affinity for DP-IV (in words): N terminus blocked
T1 construct: DP-IV is purified from pig kidney cortex by the method of Barth et al; from tissue; host or cells: pig kidney cortex
Procedure: Briefly, a reaction containing 50 μmol sodium Hepes (pH 7.8), 10 μmol Ala-Pro-p-nitroanilide, 6 milliunits of DP-IV, and 2% (vol/vol) dimethylformamide in a total volume of 1.0 ml. The reaction was initiated by the addition of enzyme and reaction rates were measured at 25° C.
Th rates of DP-IV-catalyzed hydrolysis of Ala-Pro-p-nitroanilide were determined at 3 to 5 different concentration of Ala-boroPro Pro-boroPro, boroPro and N-Boc-Ala-boroPro.

[4] = target: T2, DP-IV from human placenta (Homo sapiens, UniProt P27487); assay: DP-IV inhibition, enzyme from human placenta; format: biochemical
T2 construct: and from human placenta by the method of Puschel et al; from tissue; host or cells: human placenta
T2 sequence (P27487 whole entry): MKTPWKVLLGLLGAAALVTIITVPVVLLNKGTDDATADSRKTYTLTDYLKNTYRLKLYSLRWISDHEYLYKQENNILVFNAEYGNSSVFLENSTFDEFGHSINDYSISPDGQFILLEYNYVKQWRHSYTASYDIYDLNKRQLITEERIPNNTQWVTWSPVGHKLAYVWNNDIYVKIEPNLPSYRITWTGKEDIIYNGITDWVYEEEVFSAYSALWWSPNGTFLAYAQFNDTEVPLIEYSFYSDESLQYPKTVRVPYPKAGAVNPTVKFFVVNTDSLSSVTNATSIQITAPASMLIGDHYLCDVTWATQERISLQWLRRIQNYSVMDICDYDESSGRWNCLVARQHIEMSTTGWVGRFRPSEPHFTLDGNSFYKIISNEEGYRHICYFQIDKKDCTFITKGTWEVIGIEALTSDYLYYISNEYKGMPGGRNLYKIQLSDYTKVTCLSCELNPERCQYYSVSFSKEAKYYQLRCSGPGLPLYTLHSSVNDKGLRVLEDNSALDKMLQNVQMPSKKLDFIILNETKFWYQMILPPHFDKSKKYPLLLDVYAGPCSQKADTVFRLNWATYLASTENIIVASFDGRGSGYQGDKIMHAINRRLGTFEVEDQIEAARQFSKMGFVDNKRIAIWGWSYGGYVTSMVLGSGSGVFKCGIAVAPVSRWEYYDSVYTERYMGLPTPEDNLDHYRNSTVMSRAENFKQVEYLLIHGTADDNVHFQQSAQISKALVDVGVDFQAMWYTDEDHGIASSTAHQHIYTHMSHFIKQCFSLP

T1 sequence (P22411 whole entry): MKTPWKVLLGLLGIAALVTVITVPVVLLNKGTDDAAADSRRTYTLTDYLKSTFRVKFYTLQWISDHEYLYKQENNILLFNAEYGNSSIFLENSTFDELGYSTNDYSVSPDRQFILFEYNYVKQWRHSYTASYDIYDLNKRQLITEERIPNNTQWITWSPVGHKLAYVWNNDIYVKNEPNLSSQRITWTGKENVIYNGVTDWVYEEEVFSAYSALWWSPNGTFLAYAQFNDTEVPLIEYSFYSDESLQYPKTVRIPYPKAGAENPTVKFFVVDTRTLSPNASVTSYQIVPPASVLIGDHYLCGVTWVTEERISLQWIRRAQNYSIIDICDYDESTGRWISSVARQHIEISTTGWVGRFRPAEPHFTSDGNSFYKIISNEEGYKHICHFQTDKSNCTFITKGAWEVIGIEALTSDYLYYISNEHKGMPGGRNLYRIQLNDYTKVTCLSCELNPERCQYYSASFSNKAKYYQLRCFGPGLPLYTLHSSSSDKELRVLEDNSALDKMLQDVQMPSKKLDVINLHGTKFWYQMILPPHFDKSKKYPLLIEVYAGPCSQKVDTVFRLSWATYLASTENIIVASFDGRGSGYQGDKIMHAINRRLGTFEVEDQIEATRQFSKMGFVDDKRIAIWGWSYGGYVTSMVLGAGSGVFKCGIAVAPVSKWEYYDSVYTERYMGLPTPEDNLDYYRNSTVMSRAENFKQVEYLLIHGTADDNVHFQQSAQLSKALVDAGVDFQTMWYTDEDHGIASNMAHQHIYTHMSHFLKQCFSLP

C[C@H](N)C(=O)N1CCCC1B(O)O (mixture of isomers) [Ala-boroPro, H-Ala-boroPro]
Suppression of HIV (p24 antigen) ([1]; A3.5 cells infected with HIV-1-IIIB): suppresses HIV below detectable levels | half-life [2]: ~0.5 h

O=C([C@@H]1CCCN1)N1CCCC1B(O)O (mixture of isomers) [Pro-boroPro, H-Pro-boroPro]
Ki [3]: 0.003 µM | Ki for DP-IV (in words) ([3]; pig kidney DP-IV): nanomolar range | Affinity for DP-IV, fold less than that of H-Ala-boroPro ([3]; relative to H-Ala-boroPro): about 10 fold | half-life [2]: ~1.5 h | Inhibition of DP-IV from human placenta compared with pig kidney enzyme [4]: equally well

Cc1cn([C@H]2C[C@H](N=[N+]=[N-])[C@@H](CO)O2)c(=O)[nH]c1=O [AZT, zidovudine, reference compound]
Anti-HIV effect (p24 antigen) ([1]; 1 μM, A3.5 cells): anti-HIV effect

OB(O)C1CCCN1 (stereo not shown) [BoroPro, boroProline]
Ki [3]: 110 µM | Decrease in affinity on going from Ala-boroPro or Pro-boroPro ([3]; relative to Ala-boroPro or Pro-boroPro, Table 1): 10^5–10^6

CC(NC(=O)OC(C)(C)C)C(=O)N1CCCC1B(O)O (stereo not drawn) [N-Boc-Al-boroPro, N-Boc-Ala-boroPro]
Ki [3]: > 1000 µM | Inhibition of / affinity for DP-IV (in words) [3]: abolished inhibition | Inhibition of / affinity for DP-IV (in words) ([3]; listed as Boc-blocked Ala-boroPr): no affinity
